Assay results as given in patent publication US20190010167A1, “INHIBITORS OF THE MENIN-MLL INTERACTION” (Vitae Pharmaceuticals, Inc., priority 2015, published 2019).

How the values were obtained:
[1] = target: T1, wild-type menin / MLL-AF9 fusion protein (Homo sapiens, UniProt O00255); assay: AlphaLISA menin/MLL binding assay, wild-type menin (Assay 1); conditions: biotinylated wild-type menin 5 nM, MLL-AF9-FLAG lysate
T1 construct: made in house; host or cells: E. coli (menin); HEK293 cleared lysate (MLL-AF9-FLAG)
T1 sequence (O00255 1-610): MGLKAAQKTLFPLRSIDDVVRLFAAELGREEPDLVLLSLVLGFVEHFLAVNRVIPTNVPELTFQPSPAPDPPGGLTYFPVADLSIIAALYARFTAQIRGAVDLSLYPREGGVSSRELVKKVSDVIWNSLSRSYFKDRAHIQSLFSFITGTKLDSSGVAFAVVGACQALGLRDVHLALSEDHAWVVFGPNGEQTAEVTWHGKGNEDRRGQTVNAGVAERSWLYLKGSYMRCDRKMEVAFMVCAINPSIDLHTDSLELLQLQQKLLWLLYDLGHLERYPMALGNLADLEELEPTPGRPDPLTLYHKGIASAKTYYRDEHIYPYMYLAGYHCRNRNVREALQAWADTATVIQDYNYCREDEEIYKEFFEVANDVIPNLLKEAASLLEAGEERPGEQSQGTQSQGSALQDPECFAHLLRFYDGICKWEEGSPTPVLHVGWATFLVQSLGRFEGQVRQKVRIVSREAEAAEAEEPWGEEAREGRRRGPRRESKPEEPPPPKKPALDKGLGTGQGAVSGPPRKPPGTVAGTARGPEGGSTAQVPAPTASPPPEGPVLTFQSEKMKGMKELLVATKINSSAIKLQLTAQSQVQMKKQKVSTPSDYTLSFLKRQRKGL
Method in brief: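 Biotinylated wild-type or mutated menin (5 nM, E. coli-expressed) was preincubated 30 min at RT with compound and HEK293 lysate containing MLL1-1,396–AF9 1-92–FLAG. Buffer was 50 mM Tris-HCl pH 7.4, 5% DMSO, 50 mM NaCl, 0.01% BSA, 1 mM DTT. Anti-FLAG acceptor and streptavidin donor beads (10 μg/mL each) were then added for 60 min. IC50 came from a four-parameter fit of the Alpha signal inhibition.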

[2] = target: T2, menin/MLL (Gal4-Menin and MLL1-46-VP16) in HEK293 cells (Homo sapiens, UniProt O00255); assay: Mammalian cellular two-hybrid assay in HEK293 cells (Assay 2, cell assay); format: cell-based; conditions: Gal4-Menin/MLL1-46-VP16 two-hybrid, NanoLuc luciferase reporter, 16-18 h
T2 construct: expressed in transfected cells; host or cells: HEK293 (ATCC)
Procedure: Potencies of inhibitor compounds against menin/MLL were tested in a mammalian cellular two-hybrid assay system. HEK293 cells (American Type Culture Collection (ATCC); Manassas, Va.) were co-transfected with three plasmids: one encoding Gal4-Menin (200 ng per 10^6 cells), another encoding MLL1-46-VP16 (100 ng per 10^6 cells), and a reporter plasmid pNL3.3-4×UAS (500 ng per 10^6 cells) encoding secreted NanoLuc® luciferase (Promega) with the upstream 4×UAS repeats for Gal4 binding. Transfection was performed in Opti-MEM® media using Lipofectamine® LTX with Plus™ Reagent (ThermoFisher Scientific) according to manufacturer's protocol. Cells were incubated with transfection reagents at 37° C. 5% CO2 for 5-6 h, harvested by trypsinization and centrifugation at 300×g for 5 min and resuspended in Gibco® DMEM media (phenol red-free, no antibiotics) containing 10% delipidated fetal bovine serum (FBS) (ThermoFisher Scientific). Concentration of cells in the media was adjusted to 3.5×10^5 cells/ml, and 100 μl of the cell suspension was dispensed into each well of 96-well Costar™ black clear bottom cell culture plates (Fisher Scientific). Tested compounds were added as 100 μL of 2× solutions in the media. Final concentration of DMSO was 0.1% in all wells. The cells were incubated with tested compounds at 37° C. 5% CO2 for 16-18 h. At the end of the incubation, 40 μL of the conditioned media from each well was transferred into each well of 96-well Costar™ black half-area plates (Fisher Scientific), to which 40 μl of 2× reconstituted NanoGlo® luciferase assay reagent (Promega) was added and thoroughly mixed on a microshaker for 2-3 min. Remaining media in the culture plates was removed by emptying the wells and blotting the plates on filter paper. The cells were lysed with 1× CellTiter-Glo® Luminescent Cell Viability Assay reagent (Promega) for assessing toxicity of the tested compounds. Both, Nano-Glo® and CellTiter-Glo® luminescence intensities were measured on EnVision® multilabel plate reader (PerkinElmer). Percent inhibition values were calculated based on Nano-Glo® luciferase activity observed with the tested compounds vs. DMSO control and commercially available menin inhibitor MI-2-2 (4-(4-(5,5-Dimethyl-4,5-dihydrothiazol-2-yl)piperazin-1-yl)-6-(2,2,2-trifluoroethyl)thieno[2,3-d]pyrimidine) (EMD Millipore, Cat. No. 444825) incubated with cells at 5 μM. These percent inhibition values were regressed against compound concentrations in the assay using non-linear 4-parameter logit curve fitting (XLFit, IDBS). Half maximal inhibitory concentrations (IC50) were calculated as the parameters of the fit corresponding to the inflection points on semi-logarithmic dose-response curves.

T2 sequence (P04386 1-147 partner limits assumed, species assumed, one chain of several): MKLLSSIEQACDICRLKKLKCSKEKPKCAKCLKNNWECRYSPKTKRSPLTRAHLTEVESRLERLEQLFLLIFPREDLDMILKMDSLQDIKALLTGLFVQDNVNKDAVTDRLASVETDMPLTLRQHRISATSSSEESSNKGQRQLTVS

| SMILES | IC50 [1] [µM] | IC50 [2] [µM] |
| --- | --- | --- |
| CC(C)CN1CC2(CCN(c3ncnc4sc(CC(F)(F)F)cc34)C2)C1 [Example 108, 4-(2-isobutyl-2,6-diazaspiro[3.4]octan-6-yl)-6-(2,2,2-trifluoroethyl)thieno[2,3-d]pyrimidine] | < 0.1 | 0.1 to 1 |
| CC(C)(N)C(=O)N1CCC2(CCN(c3ncnc4sc(CC(F)(F)F)cc34)C2)C1 (stereo not shown) [Example 58, 2-Amino-2-methyl-1-(7-(6-(2,2,2-trifluoroethyl)thieno[2,3-d]pyrimidin-4-yl)-2,7-diazaspiro[4.4]nonan-2-yl)propan-1-one] | 0.1 to 1 | 0.1 to 1 |
| CS(=O)(=O)N[C@H]1CC[C@H](CN2CCC3(CC2)CN(c2ncnc4sc(CC(F)(F)F)cc24)C3)CC1 [Example 106, N-((1r,4r)-4-((2-(6-(2,2,2-trifluoroethyl)thieno[2,3-d]pyrimidin-4-yl)-2,7-diazaspiro[3.5]nonan-7-yl)methyl)cyclohexyl)methanesulfonamide] | < 0.1 | 0.1 to 1 |
| CS(=O)(=O)Cc1ccc(CC(=O)N2CC3(C2)CN(c2ncnc4sc(CC(F)(F)F)cc24)C3)cc1 [Example 61, 2-(4-((methylsulfonyl)methyl)phenyl)-1-(6-(6-(2,2,2-trifluoroethyl)thieno[2,3-d]pyrimidin-4-yl)-2,6-diazaspiro[3.3]heptan-2-yl)ethan-1-one] | 0.1 to 1 | ≥ 1 |
| FC(F)(F)Cc1cc2c(N3CCC4(CN(CC5CCOCC5)C4)C3)ncnc2s1 [Example 109, 4-(2-((tetrahydro-2H-pyran-4-yl)methyl)-2,6-diazaspiro[3.4]octan-6-yl)-6-(2,2,2-trifluoroethyl)thieno[2,3-d]pyrimidine] | 0.1 to 1 | 0.1 to 1 |
| N#Cc1ccc2c(CN3CC4(CCN(c5ncnc6sc(CC(F)(F)F)cc56)CC4)C3)c[nH]c2c1 [Example 20, 3-((7-(6-(2,2,2-trifluoroethyl)thieno[2,3-d]pyrimidin-4-yl)-2,7-diazaspiro[3.5]nonan-2-yl)methyl)-1H-indole-6-carbonitrile] | 0.1 to 1 | ≥ 1 |
| N#Cc1ccc(CN2CCC3(CCN(c4ncnc5sc(CC(F)(F)F)cc45)C3)C2)cc1 (stereo not shown) [Example 33, 4-((7-(6-(2,2,2-trifluoroethyl)thieno[2,3-d]pyrimidin-4-yl)-2,7-diazaspiro[4.4]nonan-2-yl)methyl)benzonitrile] | < 0.1 | 0.1 to 1 |
| Cc1c(CN2CCC3(C2)CN(c2ncnc4sc(CC(F)(F)F)cc24)C3)ccc2[nH]c(C#N)cc12 [Example 92, 4-methyl-5-((2-(6-(2,2,2-trifluoroethyl)thieno[2,3-d]pyrimidin-4-yl)-2,6-diazaspiro[3.4]octan-6-yl)methyl)-1H-indole-2-carbonitrile] | < 0.1 | 0.1 to 1 |
| Cc1c(CN2CCC3(CCN(c4ncnc5ccc(CC(F)(F)F)cc45)C3)C2)ccc2[nH]c(C#N)cc12 (stereo not shown) [Example 90, 4-methyl-5-((7-(6-(2,2,2-trifluoroethyl)quinazolin-4-yl)-2,7-diazaspiro[4.4]nonan-2-yl)methyl)-1H-indole-2-carbonitrile] | < 0.1 | 0.1 to 1 |
| O=c1[nH]c2ccc(CN3CCC4(CCN(c5ncnc6sc(CC(F)(F)F)cc56)C4)C3)cc2[nH]1 (stereo not shown) [Example 39, 5-((7-(6-(2,2,2-trifluoroethyl)thieno[2,3-d]pyrimidin-4-yl)-2,7-diazaspiro[4.4]nonan-2-yl)methyl)-1H-benzo[d]imidazol-2(3H)-one] | < 0.1 | < 0.1 |
| CCC(C)CN1CC2(CCN(c3ncnc4sc(CC(F)(F)F)cc34)CC2)C1 (stereo not shown) [Example 22, 4-(2-(2-methylbutyl)-2,7-diazaspiro[3.5]nonan-7-yl)-6-(2,2,2-trifluoroethyl)thieno[2,3-d]pyrimidine] | 0.1 to 1 | ≥ 1 |
| CC(C)CN1CCC2(CCN(c3ncnc4sc(CC(F)(F)F)cc34)CC2)C1 [Example 24, 4-(2-isobutyl-2,8-diazaspiro[4.5]decan-8-yl)-6-(2,2,2-trifluoroethyl)thieno[2,3-d]pyrimidine] | 0.1 to 1 | ≥ 1 |
| CC(C)(C)CN1CC2(CCN(c3ncnc4sc(CC(F)(F)F)cc34)CC2)C1 [Example 18, 4-(2-neopentyl-2,7-diazaspiro[3.5]nonan-7-yl)-6-(2,2,2-trifluoroethyl)thieno[2,3-d]pyrimidine] | 0.1 to 1 | ≥ 1 |
| COC(=O)N[C@H]1CC[C@H](CN2CCC3(CC2)CN(c2ncnc4sc(CC(F)(F)F)cc24)C3)CC1 [Example 107, methyl ((1r,4r)-4-((2-(6-(2,2,2-trifluoroethyl)thieno[2,3-d]pyrimidin-4-yl)-2,7-diazaspiro[3.5]nonan-7-yl)methyl)cyclohexyl)carbamate] | < 0.1 | 0.1 to 1 |
| Cn1c(=O)[nH]c2cc(CN3CCC4(CCN(c5ncnc6sc(CC(F)(F)F)cc56)C4)C3)ccc21 (stereo not shown) [Example 41, 1-methyl-5-((7-(6-(2,2,2-trifluoroethyl)thieno[2,3-d]pyrimidin-4-yl)-2,7-diazaspiro[4.4]nonan-2-yl)methyl)-1H-benzoldlimidazol-2(3H)-one] | < 0.1 | < 0.1 |
| O=c1[nH]c2ccc(CN3CCC4(CCN(c5ncnc6sc(CC(F)(F)F)cc56)C4)C3)cc2o1 (stereo not shown) [Example 40, 6-((7-(6-(2,2,2-trifluoroethyl)thieno[2,3-d]pyrimidin-4-yl)-2,7-diazaspiro[4.4]nonan-2-yl)methyl)benzo[d]oxazol-2(3H)-one] | < 0.1 | 0.1 to 1 |
| FC(F)(F)Cc1cc2c(N3CCC4(CCN(Cc5ccc6[nH]ccc6c5)C4)C3)ncnc2s1 (stereo not shown) [Example 28, 4-(7-((1H-indol-5-yl)methyl)-2,7-diazaspiro[4.4]nonan-2-yl)-6-(2,2,2-trifluoroethyl)thieno[2,3-d]pyrimidine] | < 0.1 | 0.1 to 1 |
| COC(=O)N[C@H]1CC[C@H](CN2CCC3(CCN(c4ncnc5sc(CC(F)(F)F)cc45)C3)C2)CC1 (stereo partly shown) [Example 46, Methyl ((1r,4r)-4-((7-(6-(2,2,2-trifluoroethyl)thieno[2,3-d]pyrimidin-4-yl)-2,7-diazaspiro[4.4]nonan-2-yl)methyl)cyclohexyl)carbamate] | < 0.1 | 0.1 to 1 |
| CC(C)CN1CC2(CCN(c3ncnc4sc(CC(F)(F)F)cc34)CC2)C1 [Example 2, 4-(2-isobutyl-2,7-diazaspiro[3.5]nonan-7-yl)-6-(2,2,2-trifluoroethyl)thieno[2,3-d]pyrimidine] | 0.1 to 1 | ≥ 1 |
| CC1(C)CCCC(CN2CC3(C2)CN(c2ncnc4sc(CC(F)(F)F)cc24)C3)C1 (stereo not shown) [Example 65, 4-(6-((3,3-dimethylcyclohexyl)methyl)-2,6-diazaspiro[3.3]heptan-2-yl)-6-(2,2,2-trifluoroethyl)thieno[2,3-d]pyrimidine] | < 0.1 | 0.1 to 1 |
